What was measured:
[1] = system: WHHL rabbits; conditions: rabbit, in vivo, po
Experimental: 3-month-old female WHHL rabbits, obtained from the Institute for Experimental Animals, Kobe University School of Medicine (Shiomi M, et al., Arterioscler Thromb 1994; 14: 931-937), were fed a standard diet supplemented with 0.5% cholesterol for 45 days. […] Twenty rabbits with established lesions were randomized into two groups, one (PPS group) receiving PPS (30 mg/kg BW daily) added to the drinking water, and the other (Control group) receiving tap water for the next 30 days. […] After 30 days, the rabbits were anesthetized with ketamine hydrochloride and xylazine (60 mg and 6 mg/kg BW, respectively), and exsanguinated. Five from each group were perfusion-fixed with 4% phosphate-buffered formaldehyde solution through the femoral vein.

[2] = system: MMP-2/MMP-9; assay: Net MMP activity in aortic extracts, synthetic colorimetric substrate; format: in vivo, rabbit; conditions: aortic arch extracts, WHHL rabbits treated with PPS; P<0.05
Experimental: (§1) MMP activity in aortic extracts and conditioned media from monocytes was assessed, as previously described (Jacot T A, et al., Lab Invest. 1996; 75:791-79). Briefly, aortic segments were homogenized and extracted in RIPA buffer (25 mM Tris, pH 7.4, 150 mM KCl, 5 mM EDTA, 1% Nonidet P-40, 0.5% sodium deoxycholate, and 0.1% SDS). Insoluble material was precipitated by centrifugation, and soluble extracts were collected and stored at −20° C. for further analysis. For in vitro experiments, cell supernatants were centrifuged to remove cellular debris, and diluted appropriately to normalize for cell number. Aortic extracts and conditioned media were then mixed with sample buffer (1% SDS, 0.08 M Tris pH 6.8, 4% glycerol, and 0.006% bromophenol blue), and loaded onto a 10% gelatin polyacrylamide gel, and processed as described (Jacot T A, et al., Lab Invest. 1996; 75:791-79). For reverse zymography, samples were loaded onto a 15% gelatin polyacrylamide gel containing 0.5% porcine gelatin and 6 μg recombinant gelatinase A, and processed as described (Elliot S J, et al., J Am Soc Nephrol. 1999; 10: 62-68).
MMP-2/MMP-9 net activity in aortic extracts was evaluated by using a synthetic colorimetric substrate [Ac-Pro-Leu-Gly-(2-mercapto-4-methylpentanoyl)-Leu-Gly-Oet; Calbiochem, Cambridge, Mass.], according to the manufacturer's directions.

[3] = system: NF-κB; assay: NF-κB luciferase reporter assay in proximal tubular cells; format: cell-based, mouse; conditions: PPS 50-200 μg/ml, TNFα 10 ng/ml
Experimental: To further determine the effect of PPS on NF-κB transcription activity, proximal tubular cells were transfected with a NF-κB reporter in the presence or absence of PPS (50-200 μg/ml) and TNFα (10 ng/ml). Some cells were also transfected with a cDNA expression vector containing constitutively active IκB, dominant negative IKK, or IKK. A β-galactosidase cDNA expression vector was co-transfected with the NF-κB reporter to serve as an internal control for transfection efficiency. Luciferase and β-galactosidase activity were measured using substrate assays. The same amount of DNA (1 μg/well of 24 well plates) was used for each transfection throughout the experiments.

[4] = system: MCP-1, RANTES, CXCL1, MIP-2, ICAM-1, and iNOS mRNA; assay: TNFα induced pro-inflammatory gene expression in proximal tubular cell line, real-time PCR; format: cell-based, mouse; conditions: PPS 200 μg/ml for 1 hour before TNFα 10 ng/ml, RNA 4 hours later
Experimental: (§2) A proximal tubular cell line obtained from mice transgenic for SV40 T antigen was grown in DMEM containing 10% FBS. For the measurement of TNFα-stimulated gene expression, 1×10^5 proximal tubular cells were transferred to each well of a 6-well-plate. After placing the cells in 0.1% FBS medium for 24 hours, 10 ng/ml of TNFα was added to test wells. Total RNA was isolated from all wells 4 hours later. MCP-1, RANTES, CXCL1, MIP-2, ICAM-1, and iNOS mRNA levels were determined by real-time PCR as described above and corrected by β-actin mRNA levels. TNFα stimulated MCP-1 and RANTES production and release into the medium was measured in TNFα (10 ng/ml) treated and control cells at 24 hours. The amount of MCP-1 or RANTES in the medium was measured by ELISA (Invitrogen Corporation (Carlsband, Calif.).
(§3) To determine the effect of PPS on TNFα induced upregulation of proinflammatory genes, proximal tubular cells were pre-treated with PPS (200 μg/ml) for 1 hour before the addition of TNFα (10 ng/ml). MCP-1, RANTES, CXCL1, MIP-2, ICAM-1, and iNOS mRNA levels were determined 4 hours later by real-time PCR. MCP-1 and RANTES production was also measured.

[5] = system: MMP-2; assay: Zymography of aortic extracts; format: in vivo, rabbit; conditions: PPS-treated WHHL rabbits, 75 days HC-diet
Experimental: as §1

[6] = system: IκB; assay: TNFα stimulated IκB phosphorylation in proximal tubular cells, Western-blot; format: cell-based, mouse; conditions: proximal tubular cells treated with PPS (400 μg/ml, ½ hour) before TNFα 10 ng/ml
Experimental: The activation of NF-κB and mitogen activated protein kinases including p38, JNK (Jun N-terminal kinase), and ERK (extracellular signal regulated kinase) pathways play an essential role in proinflammatory actions of TNFα. Thus, it was examined whether PPS affected the phosphorylation of IκB, ERK, p38, and JNK by TNFα. Proximal tubular cells were allowed to grow to 70% confluency in […] petri-dish. Cell lysates were collected before or 15, 30, 60, and 120 minutes after TNFα treatment (10 ng/ml). Cells in some dishes were pre-incubated with PPS (400 μg/ml) for ½ hour before exposure to TNFα. The levels of phosphorylated IκB, ERK, p38, and JNK were determined by Western-blots. Briefly, equal amounts of protein samples (10-20 μg/lane) were loaded onto SDS-PAGE gels. After electrophoresis, proteins were transferred to nitrocellulose membranes and blotted with antibody against phosphorylated IκB, ERK, p38, or JNK (Cell signaling, Boston, Mass.). After the first analysis, the membranes were stripped to re-probe with antibody against total IκB, ERK, p38 or JNK, and ERK and finally with antibody against β-actin (Cell signaling, Boston, Mass.).

[7] = system: podocytes; assay: Albumin permeability of podocyte monolayers (FITC-labeled BSA flux); format: cell-based; conditions: podocyte monolayer
Experimental: 1×10^5 podocytes were seeded onto collagen-coated transwell filters ([…] pore-size, Corning, N.Y., N.Y.) placed in the top chamber of each well of a 24-well plate. After cells reached confluence, some wells of cells were treated with TNFα (20 ng/ml), PPS (400 μg/ml), or PPS plus TNFα in 2% FBS medium for 8 hours. Then the medium from both the top and bottom chamber was completely removed, cells were washed twice with PBS and the top chamber was refilled with 0.2 ml 2% FBS medium supplemented with 0.5 mg/ml FITC-labeled BSA (Sigma Aldrich, St Louis, […].), while the bottom chamber was refilled with 0.6 ml 2% FBS medium supplemented with 0.5 mg/ml unlabeled BSA. At different time points, 100 μl aliquots were collected from the bottom chamber and fluorescence was measured by a fluorescence spectrophotometer (485 nm excitation, 535 nm emission). The concentration of FITC-BSA passing through the monolayer was determined by reference to a set of standard dilutions of FITC-BSA. The value of albumin flux through untreated monolayer was arbitrarily defined as 100%.

[8] = system: MCP-1 and RANTES; assay: TNFα stimulated MCP-1 and RANTES production by proximal tubular cells, ELISA; format: cell-based, mouse; conditions: PPS 200 μg/ml pretreatment, TNFα 10 ng/ml, p<0.01 vs. TNFα alone
Experimental: as §2, §3

bleeding [1]: not observed
Substance: pentosan polysulfate [PPS]
Net MMP-2/MMP-9 activity, reduction compared to water-treated animals [2]: 27.74±4.32% | TNFα stimulated NF-κB transcriptional activity [3]: dependently decreased | TNFα stimulation of MCP-1, RANTES, CXCL-1, MIP-2, ICAM-1 and iNOS mRNA expression [4]: largely prevented | MMP-2 activity in aortic extracts [5]: significantly increased | decrease in the levels of IκB phosphorylation [6]: 40-60% | inhibition of the flux of FITC-labeled BSA ([7]; PPS 400 μg/ml plus TNFα 20 ng/ml, FIG. 18 legend): 34% | reduction of the TNFα-induced increase in FITC-labeled albumin passage ([7]; PPS 400 μg/ml, TNFα 20 ng/ml): ~60% | TNFα stimulated MCP-1 and RANTES protein production [8]: decreased
